Results reported in patent publication US6703362B1, “Random peptides that bind to gastro-intestinal tract (GIT) transport receptors and related methods” (Cytogen Corporation, priority 1997, dated 2004).
Values belong to the compound of their own block, whether it stands above or below them. Square brackets hold non-standard residues; d marks the D form. Peptide text beside a SMILES is read from it. * marks the point of attachment. Dansyl = CN(C)c1cccc2c(S(=O)(=O)*)cccc12

How the values were obtained:
[1] = test system: polarized Caco-2 monolayers; assay: Transport of GST-peptide fusions across polarized Caco-2 monolayers (anti-GST ELISA); format: in vitro ADME
Protocol: Transport and uptake of GST-peptide fusions and deletion derivatives across cultured polarized Caco-2 monolayers over 4 hours in HBSS buffer was examined using an anti-GST ELISA assay. In another experiment, transport and uptake of GST-peptide fusions and deletion derivatives across cultured polarized Caco-2 monolayers over 24 hours in serum-free medium (SFM) was examined using an anti-GST ELISA assay.
a) 4 h HBSS study: […] (TER) across the Caco-2 monolayers grown on snapwells (passage 33; 23 days old) was measured to confirm monolayer integrity before beginning the experiment. The medium was removed and the cells were washed once with bHBSS. bHBSS containing 100 μM chloroquine was added and the cells were incubated for 2 h at 37° C. The bHBSS+chloroquine was replaced with 0.5 ml bHBSS containing GST-peptide fusions (10 μg/ml) and the cells were incubated as before. […] At 4h, TER was measured, the apical medium was sampled and the apical reservoir was washed 6 times with HBSS. […]
b) 24 h SFM study: Transepithelial electrical flux (TER) across the Caco-2 monolayers grown on snapwells (passage 33; 23 days old) was measured to confirm monolayer integrity before beginning the experiment. […] After 24 hours, TER readings were taken, and samples from the basolateral and apical reservoirs were removed. […]

fixed Caco-2 cells [2] = assay: Effect of thrombin cleavage on binding of GST-peptide fusions to fixed Caco-2 cells; details: thrombin 18 h at room temperature
Protocol: Binding of intact and thrombin-cleaved GST-peptide fusions to fixed Caco-2 cells was compared.
Thirty micrograms of each GST-peptide was treated with bovine thrombin (1 μ/ml; 0.4 NIH units; Sigma CN.T9681) for 18 h at room temperature in 2OmM Tris-HCl pH8.0, 150 mM NaCl, 2.5 mM CaCl2. Controls were similarly treated without addition of thrombin. Ten micrograms of each GST-peptide fusion was removed for PAGE analysis, and 10 μg of fusions were added in duplicate to the fixed Caco-2 cells before 5-fold serial dilutions (1% BPT diluent). The fusions were allowed to bind for 1 h at room temperature. Following 6 washes with 1% BPT, binding was assayed by ELISA.

[3] = test system: fixed Caco-2 or C2BBe1 cells; assay: ELISA of GST fusion proteins on fixed Caco-2 or C2BBe1 cells; format: binding
Protocol: Fixed Caco-2, C2BBe1, and A431 cell plates were prepared by growing cells on tissue culture treated microtiter plates. When cells were confluent, plates were fixed with 10% formaldehyde, washed twice with PBS and stored with 0.5%BSA-PBS at −20° C. […] The standard ELISA procedure was followed at this point.
The standard ELISA procedure was modified as follows. GST proteins were diluted to an appropriate concentration in PBS containing lkBSA and 0.05% Tween20 (1%BPT), titered and incubated one hour at room temperature. Following five washes an anti-GST monoclonal antibody was added (Sigma, St. Louis Clone GST-2 diluted 1:10,000 in 1%BPT) and incubated one hour. After five more washes goat anti-mouse IgG2b-HRP was added (Southern Biotechnology Associates Inc., Birmingham, Ala., diluted 1:4000 in 1%BPT) and incubated one hour. After five washes plates were developed with TMB peroxidase substrate (Kirkegard and Perry, Gaithersburg, Md.). All data is presented with background binding subtracted.

fixed Caco-2 cells [4] = assay: Inhibition of GST-peptide fusion binding to fixed Caco-2 cells by synthetic peptides; details: peptide from 100 μg/ml serially diluted; GST fusion 10 μg
Description: Caco-2 cells were fixed, treated with phenylhydrazine and blocked as described above. […] GST-PAX2 binding was inhibited by ZElan032, ZElan033, and ZElan035.

[5] = test system: P100 fractions harvested from Caco-2 cells; assay: Binding of dansylated peptides to P100 fractions and peptide/particle correlation
Protocol: Caco-2 cell membrane (P100) and cytosolic (S100) fractions were prepared using a modification of the method described in Kinsella, B. T., O'Mahony, D. J. and G. A. FitzGerald, 1994, J. Biol. Chem. 269(47): 29914-29919. Confluent Caco-2 cell monolayers (grown in 75 cm^2 flasks for up to 1 week at 37° C. and 5% CO2) were washed twice in Dulbecco's PBS (DPBS) and the cells were harvested by centrifugation at 1000 rpm after treatment with 10 mM EDTA-DPBS. The cells were washed 3 times in DPBS and the final cell pellet was resuspended in 3 volumes of ice cold HED buffer (20 mM HEPES (pH 7.67), 1 mM EGTA, 0.5 mM dithiothreitol, 1 mM phenylmethylsulphonyl fluoride (PMSF)). The cells were allowed to swell for 5 min on ice prior to homogenization for 30 sec. The homogenates were centrifuged at 40,000 rpm for 45 min at 4° C. The supernatant (S100) was removed and the pellet (P100) was resuspended in HEDG buffer (20 mM HEPES (pH 7.67), 1 mM EGTA, 0.5 mM dithiothreitol, 100 mM NaCl, 10% glycerol, 1 mM PMSF). Protein concentrations were determined using the Bradford assay (Bradford, M. M., 1976, Anal. Biochem. 72: 248-254).
Binding of peptide and/or peptide-coated PLGA particles to membrane (P100) and cytosolic (S100) fractions was assessed by detection of the dansyl moiety incorporated in the peptide. Costar ninety six well ELISA plates were coated with S100 and P100 fractions (100 μg/ml in 0.05 M NaHCO3) overnight at 4° C. The plates were blocked with 0.5% bovine serum albumin in DPBS for 1 h at room temperature and washed 3 times in 1% BSA-DPBS. […] After washing 3 times in 1% BSA-DPBS 100 μl of TMB substrate (3,3′,5′,5-tetramethylbenzidine; Microwell Peroxidase Substrate System (Kirkegaard and Perry Laboratories 50-76-00)) was added and the optical density was measured at 650 nm at various time intervals.
Binding of dansylated peptides to P100 fractions was assessed to determine if peptide binding was predictive of peptide-coated particle binding.

[6] = test system: P100 membrane fractions derived from Caco-2 cells; assay: Dansylated peptide ELISA: relative binding of PAX2 and HAX42 peptides to P100 (ratio to ZElan021); details: ratio to ZElan021 = 1.00
In short: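 P100 membrane fraction from Caco-2 cells (normally 100 μg/ml) coated in carbonate buffer pH9.6, blocked with 2% Marvel/PBS, then incubated with dansylated peptides. Detection via anti-mouse HRP conjugate and TMB, OD read at 650nm; binding expressed relative to ZElan021.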

[7] = test system: ZElan024 (P31), ZElan018 (PAX2), ZElan021 (HAX42); assay: Crossreactive binding of GST fusions to dansylated peptides; details: 0.5 μg/ml concentration used in competition assays
[8] = Peptide stability in simulated intestinal fluid (SIF); format: in vitro ADME
Protocol: The relative stability for ZElanO3l, ZElanO53 and ZElan054 was determined in simulated intestinal fluid (SIF) SIF was made by dissolving 100 mg of pancreatin (Sigma cat#P-1625, lot# 122H0812)in 8.4 ml of phosphate stock solution, adjusting the pH to 7.5 with 0.2N NaOH and adjusting the volume to 10 ml with water.
Peptide (3.25 mg) was dissolved in 3.25 ml of 10,000 fold diluted SIF solution at 37° C. Aliquots (0.7 ml) of the digestion solution were then withdrawn at <1 min, 1 h, 3 h, and 21 h or 24 h. The samples were quickly passed through a syringe filter (Millipore Millex-GV 0.22 μm, part# SLGV025LS, lot# H2BM95250) and 300 μL of the filtered solution was immediately injected onto a Hewlett-Packard HPLC system equipped with a C-8 column (Applied Biosystems column and guard column: column-p/n 0711-0023 Spheri-5 ODS 5 μm, 220×4.6 mm). The products were eluted at 1.5 ml/min using an acetonitrile-water gradient. The major fluorescent peaks were collected, lyopholized and identified by MS analysis.

- binding to fixed Caco-2 or C2BBe1 cells relative to GST control [3]: bound fixed Caco-2 or C2BBe1 cells
Compound: gst-RYKHDIGCDAGVDKKSSSVRGGCGAHSSPPRAGRGPRGTMVSRL [GST-DCX8]
- flux relative to GST alone [1]: higher flux than GST alone
- effect of thrombin cleavage on detection of binding (fixed Caco-2 cells [2]): significantly reduced detection of binding

Compound: H-K(Dansyl)SDHALGTNLRSDNAKEPGDYNCCGNGNSTGRKVFNRRRPSAIPT-NH2 (cysteines drawn unpaired) [ZElan021]
- inhibition of GST-HAX42 binding (fixed Caco-2 cells [4]): not inhibited
- binding of dansylated peptide to P100 compared to scrambled PAX2 control ([5]; initial assay): strong binding
- Binding value at 20 μg/ml ([6]; HAX42 peptides): 1.00
- Binding value at 25 μg/ml ([6]; HAX42 peptides, first 25 μg/ml column): 1.00
- Binding value at 50 μg/ml ([6]; HAX42 peptides, first 50 μg/ml column): 1.00
- Binding value at 25 μg/ml ([6]; HAX42 peptides, second 25 μg/ml column): 1.00
- Binding value at 50 μg/ml ([6]; HAX42 peptides, second 50 μg/ml column): 1.00
- Binding value at 25 μg/ml ([6]; HAX42 peptides, third 25 μg/ml column): 1.00

Compound: gst-SARDSGPAEDGSRAVRLNGVENANTRKSSRSNPRGRRHP [GST-P31]
- crossreactive binding to ZElan024 (P31) and ZElan018 (PAX2) [7]: no crossreactive binding
- flux relative to GST alone [1]: higher flux than GST alone
- binding to fixed Caco-2 or C2BBe1 cells relative to GST control [3]: bound fixed Caco-2 or C2BBe1 cells

- Rel. Stab. ([8]; rank, 1 = most stable to SIF): 1
- remaining at 1 min, 1 mg/ml ([8]; simulated intestinal fluid (pancreatin), pH 7.5, 10,000 fold diluted SIF, 37° C., read-out: Percent Remaining at: 1 m): 100%
- remaining at 1 h, 1 mg/ml ([8]; simulated intestinal fluid (pancreatin), pH 7.5, 10,000 fold diluted SIF, 37° C., read-out: Percent Remaining at: 1 h): 98.3%
- remaining at 3 h, 1 mg/ml ([8]; simulated intestinal fluid (pancreatin), pH 7.5, 10,000 fold diluted SIF, 37° C., read-out: Percent Remaining at: 3 h): 98.1%
- remaining at 24 h, 1 mg/ml ([8]; simulated intestinal fluid (pancreatin), pH 7.5, 10,000 fold diluted SIF, 37° C., read-out: Percent Remaining at: 24 h): 94%
Compound: C[C@@H](O)[C@H](NC(=O)[C@@H](N)CCCCNS(=O)(=O)c1cccc2c(N(C)C)cccc12)C(=O)N[C@H](CCCNC(=N)N)C(=O)N[C@@H](CCCCN)C(=O)N[C@@H](CO)C(=O)N[C@@H](CO)C(=O)N[C@H](CCCNC(=N)N)C(=O)N[C@@H](CO)C(=O)N[C@@H](CC(N)=O)C(=O)N1CCC[C@H]1C(=O)N[C@H](CCCNC(=N)N)C(=O)NCC(=O)N[C@H](CCCNC(=N)N)C(=O)N[C@H](CCCNC(=N)N)C(=O)N[C@@H](Cc1c[nH]cn1)C(=O)N1CCC[C@H]1C(=O)NCC(N)=O [ZElan053, H2N—K(dns)TrKSSrSNPrGrrHPG—CONH2] (H-K(Dansyl)T[dR]KSS[dR]SNP[dR]G[dR][dR]HPG-NH2)
- inhibition of GST-P31 binding (fixed Caco-2 cells [4]): inhibited
- binding of dansylated peptide to P100 compared to scrambled PAX2 control ([5]; initial assay): binding at the highest dilution only

Compound: H-K(Dansyl)STPPSREAYSRPYSVDSDSDTNAKHSSHNRRLRTRSRPNG-NH2 [ZElan018]
- inhibition of GST-HAX42 binding (fixed Caco-2 cells [4]): inhibited
- binding of dansylated peptide to P100 compared to scrambled PAX2 control ([5]; repeat assay): indistinguishable from the scrambled PAX2 control
- Binding value at 20 μg/ml ([6]; PAX2 peptides, first 20 μg/ml column): −0.33
- Binding value at 50 μg/ml ([6]; PAX2 peptides, first 50 μg/ml column): 0.95
- Binding value at 20 μg/ml ([6]; PAX2 peptides, second 20 μg/ml column): 1.07
- Binding value at 50 μg/ml ([6]; PAX2 peptides, second 50 μg/ml column): 1.01
